This note sets out measurements from patent US20240043470A1, “MACROCYCLIC COMPOUNDS AS PROTEASOME INHIBITORS” (CORNELL UNIVERSITY, priority 2017, published 2024).

One data set deals with β5i of hu i-20S (Homo sapiens (Human), UniProt P20618+P28062). The data set is described as follows: IC50 determination against β5i of human immunoproteasome (Ac-ANW-AMC hydrolysis).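 Further: enzyme activity taken as the initial reaction velocity per well, with SDS added to activate the proteasome.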 The following applies: β5i, 0.4 nM i-20S, 15 μM Ac-ANW-AMC. The format is biochemical.
Data set [1] deals with IL-6 in LPS-stimulated human macrophages. The data set is described as follows: Inhibition of IL-6 in LPS-stimulated human macrophages (Q-PCR and ELISA). The format is cell-based. The following applies: LPS 50 ng/ml; 6 h gene expression (FIG. 1A), 24 h ELISA (FIG. 1B); compound added 15 minutes before LPS. Here is the method: Monocytes were isolated from the blood of 2 healthy donors using CD14 magnetic beads and cultured with 20 ng/ml of MCSF for 24 hours to induce the differentiation into macrophages. 200,000 cells/wells in 96 wells plate were incubated with LPS (50 ng/ml) for 6 hours for RNA isolation and gene expression analysis (FIG. 1A) and 24 hours for ELISA (FIG. 1B). The proteasome inhibitor 4-13 used at the indicated concentration was added 15 minutes before adding LPS. At 6 hours, RNA were prepared using Qiagen RNA plus kit and cDNA were synthetized using the Thermofisher cDNA synthesis kit (FIG. 1A). Q-PCR was performed in duplicate and expression levels normalized to the level of the housekeeping gene ubiquitin. At 24 hours, supernatants were collected and IL-6 production quantified by ELISA (FIG. 1B).
A general note: ELISA stands for enzyme-linked immunosorbent assay.

The next data set has as its target β5c of hu c-20S (Homo sapiens (Human), UniProt P20618+P28074). The data set is described as follows: IC50 determination against β5c of human constitutive proteasome (suc-LLVY-AMC hydrolysis).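 Further: IC50 obtained by fitting initial reaction velocities to a dose-dependent inhibition model, with SDS present as proteasome activator.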 The following applies: 0.2 nM c-20S, 25 μM suc-LLVY-AMC. It counts as biochemical.
The conditions of data set [2]: amide bond, 16-membered ring, EDCI/HOBt/DIEA, DMF.

Where two headings read alike, the source gives them in different places.

Usually IC50 stands for the concentration at which inhibition is half-maximal. A lower IC50 goes with greater potency. With `O=C1CCCCCCCCCC[C@@H](C(=O)NCc2ccccc2F)NC(=O)[C@H](CC(=O)N2CCCC2C2CC2)N1` (some centres unmarked) [Compound 4-13], the IC50 on β5i of hu i-20S worked out at 0.018 µM; at β5c of hu c-20S, 0.274 µM. Further, the “Inhibition of IL-6 in LPS-stimulated human macrophages” value in data set [1] was “inhibition of IL-6”.

The molecule “(5S,8S,11S)-7,10-Dioxo-11-(2-oxopyrrolidin-1-yl)-8-(2-(piperidin-1-yl)ethyl)-N-(2,2,2-trifluoroethyl)-2-oxa-6,9-diaza-1,3(1,3)-dibenzenacyclododecaphane-5-carboxamide” yielded a ring closure, yield after HPLC in data set [2] (15.8 mM, 20.0 °C) of 24.2%.

“(5S,8S,11S)-6-Methyl-7,10-dioxo-11-(2-oxopyrrolidin-1-yl)-8-phenethyl-N-(2,2,2-trifluoroethyl)-2-oxa-6,9-diaza-1,3(1,3)-dibenzenacyclododecaphane-5-carboxamide” yielded a ring closure, yield after HPLC in data set [2] (18.3 mM, 25.0 °C) of 26%.
